Results taken from ChEMBL document CHEMBL5550100, “Discovery of LHF418 as a new potent SOS1 PROTAC degrader” (Bioorg Med Chem, 2024).
Activity calls are given as the source filed them. No cut-off for these calls is given here.

What was measured:
Format in all cases: cell-based
[1] = molecular target: T1, Protein cereblon/Son of sevenless homolog 1 (Homo sapiens, UniProt Q07889+Q96SW2); test: PROTAC activity at CRBN/SOS1 in human A549 cells assessed as protein degradation at 10 uM incubated for 24 hrs by immunoblot analysis relative to control
T1 sequence (Q07889 whole entry, looked up): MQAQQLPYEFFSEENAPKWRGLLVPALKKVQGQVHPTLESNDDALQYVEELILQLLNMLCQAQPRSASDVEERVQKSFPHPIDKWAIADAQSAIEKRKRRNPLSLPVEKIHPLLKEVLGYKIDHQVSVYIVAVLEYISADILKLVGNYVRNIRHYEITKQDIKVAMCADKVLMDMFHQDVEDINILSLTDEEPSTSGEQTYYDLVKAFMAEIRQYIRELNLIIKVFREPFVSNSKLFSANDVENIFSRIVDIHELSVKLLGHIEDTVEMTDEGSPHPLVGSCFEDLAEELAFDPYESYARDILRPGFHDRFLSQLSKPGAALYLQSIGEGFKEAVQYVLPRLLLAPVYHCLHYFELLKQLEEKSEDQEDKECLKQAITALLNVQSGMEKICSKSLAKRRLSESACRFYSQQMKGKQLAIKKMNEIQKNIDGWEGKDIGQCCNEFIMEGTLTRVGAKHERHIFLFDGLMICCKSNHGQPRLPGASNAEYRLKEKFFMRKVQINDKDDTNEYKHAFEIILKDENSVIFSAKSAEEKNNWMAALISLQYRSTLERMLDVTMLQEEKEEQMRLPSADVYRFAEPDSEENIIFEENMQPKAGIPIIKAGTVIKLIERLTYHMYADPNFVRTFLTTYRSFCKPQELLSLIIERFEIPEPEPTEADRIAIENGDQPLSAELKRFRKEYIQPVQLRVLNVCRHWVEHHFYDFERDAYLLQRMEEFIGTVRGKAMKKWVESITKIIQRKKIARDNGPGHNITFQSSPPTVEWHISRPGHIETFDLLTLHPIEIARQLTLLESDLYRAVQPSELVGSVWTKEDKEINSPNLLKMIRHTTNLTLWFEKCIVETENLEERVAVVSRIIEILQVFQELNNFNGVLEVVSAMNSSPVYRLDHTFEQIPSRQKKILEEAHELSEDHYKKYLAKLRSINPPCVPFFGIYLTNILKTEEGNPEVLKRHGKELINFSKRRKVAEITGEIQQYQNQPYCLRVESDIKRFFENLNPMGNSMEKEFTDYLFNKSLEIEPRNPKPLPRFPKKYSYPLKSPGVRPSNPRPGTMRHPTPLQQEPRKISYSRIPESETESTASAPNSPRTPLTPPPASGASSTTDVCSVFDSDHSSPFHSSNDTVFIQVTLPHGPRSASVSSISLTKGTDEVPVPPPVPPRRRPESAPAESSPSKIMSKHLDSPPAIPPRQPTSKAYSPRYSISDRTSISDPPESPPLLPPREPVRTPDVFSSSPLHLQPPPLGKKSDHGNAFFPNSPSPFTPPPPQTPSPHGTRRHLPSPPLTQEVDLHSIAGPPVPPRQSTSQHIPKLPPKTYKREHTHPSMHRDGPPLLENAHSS
T1 sequence (Q96SW2 whole entry, looked up): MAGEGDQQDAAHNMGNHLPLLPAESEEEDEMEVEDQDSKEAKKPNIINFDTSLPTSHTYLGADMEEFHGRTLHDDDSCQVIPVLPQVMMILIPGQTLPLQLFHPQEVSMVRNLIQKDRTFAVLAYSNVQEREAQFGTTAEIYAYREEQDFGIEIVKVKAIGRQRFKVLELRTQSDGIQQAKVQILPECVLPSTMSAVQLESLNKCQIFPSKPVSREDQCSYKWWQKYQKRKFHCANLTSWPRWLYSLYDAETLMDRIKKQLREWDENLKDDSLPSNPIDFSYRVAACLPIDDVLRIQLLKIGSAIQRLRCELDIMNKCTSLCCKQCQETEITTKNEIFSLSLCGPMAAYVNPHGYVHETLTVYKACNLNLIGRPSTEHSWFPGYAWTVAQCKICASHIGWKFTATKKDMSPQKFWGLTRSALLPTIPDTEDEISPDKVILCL

[2] = molecular target: T1, Protein cereblon/Son of sevenless homolog 1; test: PROTAC activity at CRBN/SOS1 in human A549 cells assessed as protein degradation at 1 uM incubated for 24 hrs by immunoblot analysis relative to control
[3] = molecular target: T1, Protein cereblon/Son of sevenless homolog 1; test: PROTAC activity at CRBN/SOS1 in human A549 cells assessed as protein degradation at 0.1 uM incubated for 24 hrs by immunoblot analysis relative to control
[4] = molecular target: T1, Protein cereblon/Son of sevenless homolog 1; test: PROTAC activity at CRBN/SOS1 in human A549 cells assessed as half life of SOS1 at 3 uM incubated for 24 hrs by immunoblot analysis
[5] = molecular target: T1, Protein cereblon/Son of sevenless homolog 1; test: PROTAC activity at CRBN/SOS1 in human A549 cells assessed as protein degradation at 10 uM incubated for 24 hrs by immunoblot analysis

Structure (SMILES)	Activity [1]	Activity [2]	Activity [3]	T1/2 [4]	Activity [5]
COc1cc2nc(C)nc(N[C@H](C)c3cc(N)cc(C(F)(F)F)c3)c2cc1O[C@H]1CCN(C(=O)CC(=O)Nc2cccc3c2C(=O)N(C2CCC(=O)NC2=O)C3)C1 (some centres undefined)	9.2%	11.6%	0%	–	–
C[C@@H]1C[C@@H]([C@H](O)CC2CC(=O)NC(=O)C2)C(=O)[C@@H](C)C1	–	–	–	> 24 h	–
COc1cc2nc(C)nc(N[C@H](C)c3cc(N)cc(C(F)(F)F)c3)c2cc1O[C@H]1CCN(C(=O)CCCCC(=O)Nc2ccc3c(c2)CN(C2CCC(=O)NC2=O)C3=O)C1 (some centres undefined)	15.6%	10%	7.1%	–	–
COc1cc2nc(C)nc(N[C@H](C)c3cc(N)cc(C(F)(F)F)c3)c2cc1O[C@H]1CCN(C(=O)CCC(=O)Nc2cccc3c2C(=O)N(C2CCC(=O)NC2=O)C3)C1 (some centres undefined)	0%	9.6%	0%	–	–
COc1cc2nc(C)nc(N[C@H](C)c3cc(N)cc(C(F)(F)F)c3)c2cc1O[C@H]1CCN(C(=O)CCCCCCC(=O)Nc2cccc3c2C(=O)N(C2CCC(=O)NC2=O)C3)C1 (some centres undefined)	3.7%	0%	2.6%	–	–
COc1cc2nc(C)nc(N[C@H](C)c3cc(N)cc(C(F)(F)F)c3)c2cc1O[C@H]1CCN(C(=O)CCCCCCCCC(=O)Nc2ccc3c(c2)C(=O)N(C2CCC(=O)NC2=O)C3)C1 (some centres undefined)	0.6%	2.5%	0%	–	–
COc1cc2nc(C)nc(N[C@H](C)c3cc(N)cc(C(F)(F)F)c3)c2cc1O[C@H]1CCN(C(=O)CCCCCCCCC(=O)Nc2ccc3c(c2)CN(C2CCC(=O)NC2=O)C3=O)C1 (some centres undefined)	9%	9.5%	0%	–	–
COc1cc2nc(C)nc(N[C@H](C)c3cc(N)cc(C(F)(F)F)c3)c2cc1O[C@H]1CCN(C(=O)CNc2cccc3c2C(=O)N(C2CCC(=O)NC2=O)C3=O)C1 (some centres undefined)	0%	2.6%	1.7%	–	–
COc1cc2nc(C)nc(N[C@H](C)c3cc(N)cc(C(F)(F)F)c3)c2cc1O[C@H]1CCN(C(=O)CCCCCNc2cccc3c2C(=O)N(C2CCC(=O)NC2=O)C3=O)C1 (some centres undefined)	6.7%	5.7%	14.3%	–	–
COc1cc2nc(C)nc(N[C@H](C)c3cc(N)cc(C(F)(F)F)c3)c2cc1O[C@H]1CCN(C(=O)CCCCCCCCC(=O)Nc2cccc3c2CN(C2CCC(=O)NC2=O)C3=O)C1 (some centres undefined)	26.1%	39.1%	11.4%	–	–
COc1cc2nc(C)nc(N[C@H](C)c3cc(N)cc(C(F)(F)F)c3)c2cc1O[C@H]1CCN(C(=O)CCCCCNc2ccc3c(c2)C(=O)N(C2CCC(=O)NC2=O)C3=O)C1 (some centres undefined)	19.3%	11.9%	5.6%	–	–
COc1cc2nc(C)nc(N[C@H](C)c3cc(N)cc(C(F)(F)F)c3)c2cc1O[C@H]1CCN(C(=O)CCCNc2cccc3c2C(=O)N(C2CCC(=O)NC2=O)C3=O)C1 (some centres undefined)	8%	0%	0.9%	–	–
COc1cc2nc(C)nc(N[C@H](C)c3cc(N)cc(C(F)(F)F)c3)c2cc1O[C@H]1CCN(C(=O)CCCNc2ccc3c(c2)C(=O)N(C2CCC(=O)NC2=O)C3=O)C1 (some centres undefined)	9.4%	8.9%	4%	–	–
COc1cc2nc(C)nc(N[C@H](C)c3cc(N)cc(C(F)(F)F)c3)c2cc1O[C@H]1CCN(C(=O)CCCCCCC(=O)Nc2cccc3c2CN(C2CCC(=O)NC2=O)C3=O)C1 (some centres undefined)	65.4%	31.9%	2.1%	–	–
COc1cc2nc(C)nc(N[C@H](C)c3cc(N)cc(C(F)(F)F)c3)c2cc1O[C@H]1CCN(C(=O)CC(=O)Nc2ccc3c(c2)CN(C2CCC(=O)NC2=O)C3=O)C1 (some centres undefined)	9.3%	4%	0%	–	–
COc1cc2nc(C)nc(N[C@H](C)c3cc(N)cc(C(F)(F)F)c3)c2cc1O[C@H]1CCN(C(=O)CCCCCCCCCCC(=O)Nc2cccc3c2CN(C2CCC(=O)NC2=O)C3=O)C1 (some centres undefined)	0%	0%	0%	–	–

Structure (SMILES)	Activity [1]	Activity [2]	Activity [3]	T1/2 [4]	Activity [5]
COc1cc2nc(C)nc(N[C@H](C)c3cc(N)cc(C(F)(F)F)c3)c2cc1O[C@H]1CCN(C(=O)CCC(=O)Nc2ccc3c(c2)CN(C2CCC(=O)NC2=O)C3=O)C1 (some centres undefined)	2.4%	0%	0%	–	–
COc1cc2nc(C)nc(N[C@H](C)c3cc(N)cc(C(F)(F)F)c3)c2cc1O[C@H]1CCN(C(=O)CCCCC(=O)Nc2cccc3c2C(=O)N(C2CCC(=O)NC2=O)C3)C1 (some centres undefined)	10.2%	1.6%	5.6%	–	–
COc1cc2nc(C)nc(N[C@H](C)c3cc(N)cc(C(F)(F)F)c3)c2cc1O[C@H]1CCN(C(=O)CCCCCCCCCNc2ccc3c(c2)C(=O)N(C2CCC(=O)NC2=O)C3=O)C1 (some centres undefined)	0%	0%	0%	–	–
COc1cc2nc(C)nc(N[C@H](C)c3cc(N)cc(C(F)(F)F)c3)c2cc1O[C@H]1CCN(C(=O)CCCCCCCC(=O)Nc2cccc3c2CN(C2CCC(=O)N(C)C2=O)C3=O)C1 (some centres undefined)	–	–	–	–	inactive
COc1cc2nc(C)nc(N[C@H](C)c3cc(N)cc(C(F)(F)F)c3)c2cc1O[C@H]1CCN(C(=O)CCCCC(=O)Nc2ccc3c(c2)C(=O)N(C2CCC(=O)NC2=O)C3)C1 (some centres undefined)	37.6%	12.2%	2.7%	–	–
COc1cc2nc(C)nc(N[C@H](C)c3cc(N)cc(C(F)(F)F)c3)c2cc1O[C@H]1CCN(C(=O)CCCCCCCNc2ccc3c(c2)C(=O)N(C2CCC(=O)NC2=O)C3=O)C1 (some centres undefined)	42.9%	20.9%	6.6%	–	–
COc1cc2nc(C)nc(N[C@H](C)c3cc(N)cc(C(F)(F)F)c3)c2cc1O[C@H]1CCN(C(=O)CCCCCCCCC(=O)Nc2cccc3c2C(=O)N(C2CCC(=O)NC2=O)C3)C1 (some centres undefined)	18.1%	6.7%	6.4%	–	–
COc1cc2nc(C)nc(N[C@H](C)c3cc(N)cc(C(F)(F)F)c3)c2cc1O[C@H]1CCN(C(=O)CCCCC(=O)Nc2cccc3c2CN(C2CCC(=O)NC2=O)C3=O)C1 (some centres undefined)	0%	0%	1.8%	–	–
COc1cc2nc(C)nc(N[C@H](C)c3cc(N)cc(C(F)(F)F)c3)c2cc1O[C@H]1CCN(C(=O)CC(=O)Nc2ccc3c(c2)C(=O)N(C2CCC(=O)NC2=O)C3)C1 (some centres undefined)	7.5%	6.1%	8.5%	–	–
COc1cc2nc(C)nc(N[C@H](C)c3cc(N)cc(C(F)(F)F)c3)c2cc1O[C@H]1CCN(C(=O)CNc2ccc3c(c2)C(=O)N(C2CCC(=O)NC2=O)C3=O)C1 (some centres undefined)	1.5%	0%	0%	–	–
COc1cc2nc(C)nc(N[C@H](C)c3cc(N)cc(C(F)(F)F)c3)c2cc1O[C@H]1CCN(C(=O)CC(=O)Nc2cccc3c2CN(C2CCC(=O)NC2=O)C3=O)C1 (some centres undefined)	7%	4.7%	1%	–	–
COc1cc2nc(C)nc(N[C@H](C)c3cc(N)cc(C(F)(F)F)c3)c2cc1O[C@H]1CCN(C(=O)CCCCCCCNc2cccc3c2C(=O)N(C2CCC(=O)NC2=O)C3=O)C1 (some centres undefined)	6.1%	13%	15.3%	–	–
COc1cc2nc(C)nc(N[C@H](C)c3cc(N)cc(C(F)(F)F)c3)c2cc1O[C@H]1CCN(C(=O)CCC(=O)Nc2ccc3c(c2)C(=O)N(C2CCC(=O)NC2=O)C3)C1 (some centres undefined)	35.6%	20%	13.7%	–	–
COc1cc2nc(C)nc(N[C@H](C)c3cc(N)cc(C(F)(F)F)c3)c2cc1O[C@H]1CCN(C(=O)CCCCCCC(=O)Nc2ccc3c(c2)CN(C2CCC(=O)NC2=O)C3=O)C1 (some centres undefined)	4.1%	57.7%	3.9%	–	–
COc1cc2nc(C)nc(N[C@H](C)c3cc(N)cc(C(F)(F)F)c3)c2cc1O[C@H]1CCN(C(=O)CCCCCCC(=O)Nc2ccc3c(c2)C(=O)N(C2CCC(=O)NC2=O)C3)C1 (some centres undefined)	8.2%	37.6%	7.9%	–	–
